Key:
[1] = test system: transplanted tumor of human prostate cancer PC3 cells; assay: Human prostate cancer in nude mice model; settings: 30 mg/kg i.g. 30 d
Description: (§1) Then cell concentration was adjusted to 1×10^7/ml with matrigel, and then each nude mouse was inoculated subcutaneously with 0.2 ml of cells at its right armpit and recorded as the first day of inoculation. […] Each group was continuously administered intragastrically for 30 days with a dose of 20 ml/kg. The mice were sacrificed the next day after drug withdrawal and the indicators were tested. The long diameter and short diameter of the tumor, and the body weight of each mouse were recorded every 3 days from drug administration to nude mouse sacrifice.
(§2) The body weight of the nude mice and the long diameter (a) and short diameter (b) of the transplanted tumor were measured every 3 days, and the tumor volume (v), relative tumor volume (RTV) and relative tumor proliferation rate (T/C) are calculated respectively according to the following formulas, wherein V=a×b^2/2; RTV=V/V0 (V0 is the tumor volume before administration, V is the tumor volume before sacrifice), and T/C (%)=treatment group RTV/model control group RTV×100%.
(§3) Each mouse was weighed and sacrificed. After the tumor was completely stripped off from the body of the mouse, the non-tumor tissues such as blood stains and fat were removed to weigh the tumor and calculate the tumor growth inhibition rate. The average tumor weight of each group of mice is used as an indicator of efficacy. Tumor growth inhibition rate (%)=(1−the average tumor weight of the treatment group/the average tumor weight of the model group)×100%.

[2] = test system: transplanted tumor of human breast cancer MCF-7 cells; assay: Human breast cancer (MCF-7) in nude mice model; settings: MCF-7 nude mice; 30 mg/kg i.g. 30 d
Description: as §1, §2, §3

[3] = test system: transplanted tumor of human cervical cancer HeLa cells; assay: Human cervical cancer in nude mice model; settings: 30 mg/kg i.g. 30 d
Description: as §1, with “Then the cells were subjected to trypsinization, centrifugation, and supernatant removal. Then” for “Then”, “matrigel,” for “matrigel, and”
as §2
as §3, with “Calculation of Tumor Growth Inhibition Rate Each” for “Each”

SMILES: O=P1(N(CCCl)CCCl)NCCCO1 (centres unmarked) [Cyclophosphamide]
- Body Weight (g)(d1) [1]: 19.32 ± 0.25 g
- Body Weight (g)(d30) [1]: 18.68 ± 1.21 g
- Inhibition Rate (%) [1]: 70.06%
- Relative Tumor Proliferation Rate(T/C) [1]: 23.29%
- Relative Tumor Volume (RTV) [1]: 4.67 ± 0.82
- Tumor Volume (mm3) (d1) [1]: 108.68 ± 13.62 mm3
- Tumor Volume (mm3) (d30) [1]: 507.88 ± 87.93 mm3
- Tumor Weight [1]: 0.56 ± 0.4 g
- Body Weight (g)(d1) [2]: 21.93 ± 0.89 g
- Body Weight (g)(d30) [2]: 19.79 ± 1.47 g
- Inhibition Rate (%) [2]: 62.3%
- Relative Tumor Proliferation Rate(T/C) [2]: 30.58%
- Relative Tumor Volume (RTV) [2]: 5.00 ± 1.27
- Tumor Volume (mm3) (d1) [2]: 127.68 ± 14.89 mm3
- Tumor Volume (mm3) (d30) [2]: 638.62 ± 123.11 mm3
- Tumor Weight [2]: 0.72 ± 0.21 g
- Body Weight (g)(d1) [3]: 20.04 ± 0.68 g
- Body Weight (g)(d30) [3]: 19.20 ± 0.18 g
- Inhibition Rate (%) [3]: 72.48%
- Relative Tumor Proliferation Rate(T/C) [3]: 24.35%
- Relative Tumor Volume (RTV) [3]: 3.44 ± 0.93
- Tumor Volume (mm3) (d30) [3]: 397.88 ± 103.60 mm3
- Tumor Weight [3]: 0.49 ± 0.39 g

Source: US11077126B2 (priority 2017, dated 2021)
